Source: US20210300940A1 (Merck Patent GmbH, priority 2018, published 2021)
Where a name gives a salt, the structure may show the parent alone.

What was measured:
TLR7 = target: T1, TLR7 (Homo sapiens, UniProt Q9NYK1); test: HEK/293 TLR7 Cell Assay; type: cell-based; details: TLR7/NFKb HEK cells, R848 agonist 10 uM final concentration, Steady-Glo readout; read-out: TLR7 potency
T1 construct: expressed in transfected cells; host or cells: HEK/293 cells carrying TLR7 and an NF-kB luciferase reporter
T1 sequence (Q9NYK1 27-1049): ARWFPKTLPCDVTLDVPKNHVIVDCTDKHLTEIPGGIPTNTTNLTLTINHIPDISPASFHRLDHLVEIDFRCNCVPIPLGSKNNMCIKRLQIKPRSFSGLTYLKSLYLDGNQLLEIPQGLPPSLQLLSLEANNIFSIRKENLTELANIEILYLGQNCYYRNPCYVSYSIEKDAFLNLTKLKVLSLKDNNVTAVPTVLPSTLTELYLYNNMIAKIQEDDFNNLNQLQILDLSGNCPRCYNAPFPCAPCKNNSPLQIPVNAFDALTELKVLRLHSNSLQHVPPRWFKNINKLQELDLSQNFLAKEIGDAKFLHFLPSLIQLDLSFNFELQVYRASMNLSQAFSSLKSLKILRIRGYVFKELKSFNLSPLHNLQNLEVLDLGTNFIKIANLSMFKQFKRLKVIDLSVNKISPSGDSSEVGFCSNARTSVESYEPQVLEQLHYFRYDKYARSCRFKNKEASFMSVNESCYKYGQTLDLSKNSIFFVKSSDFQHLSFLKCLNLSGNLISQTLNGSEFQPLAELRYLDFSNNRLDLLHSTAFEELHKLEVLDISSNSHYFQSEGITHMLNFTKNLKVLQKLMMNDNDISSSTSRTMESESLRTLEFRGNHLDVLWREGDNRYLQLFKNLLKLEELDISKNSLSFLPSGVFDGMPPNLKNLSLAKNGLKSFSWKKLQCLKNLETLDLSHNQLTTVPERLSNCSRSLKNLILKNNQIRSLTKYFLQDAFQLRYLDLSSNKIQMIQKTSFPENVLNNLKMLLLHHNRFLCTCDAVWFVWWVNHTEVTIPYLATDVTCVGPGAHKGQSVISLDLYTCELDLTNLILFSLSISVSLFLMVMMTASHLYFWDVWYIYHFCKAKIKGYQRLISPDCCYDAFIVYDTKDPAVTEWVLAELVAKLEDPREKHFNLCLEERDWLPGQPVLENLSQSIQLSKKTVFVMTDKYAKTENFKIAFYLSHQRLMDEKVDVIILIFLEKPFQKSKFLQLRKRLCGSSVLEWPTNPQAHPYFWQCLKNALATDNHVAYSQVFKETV
Method: (§1) Example 389: HEK/293 TLR7 Cell Assay Into 384 CulturePlates (Corning 3765) was placed 5000 c/w of TLR7/NFKb HEK cells in 30 uL DMEM without Phenol red (gibco #31053-028) and 10% heat inactivated fetal bovine serum, 10% penicillin-streptomycin, and 2 mM L-Glutamine. The cells were incubated for 24 h at 37° C., 10% carbon dioxide and 90% relative humidity. 3 uL of controls, standards, and compounds were dispensed into wells, incubated for 30 min then 3 uL of R848 agonist (10 uM final concentration) was added in 20 mM Hepes. After incubation for 5 hours, they were allowed to stand at room temperature for 15 min. To this was added 10 uL of Steady-Glo substrate reagent and shake assay plate for 5 min at 1500 rpm. The assay plate was allowed to sit for 30 min at room temperature and then the plate was read on EnVision.

TLR8 = target: T2, TLR8 (Homo sapiens, UniProt Q9NR97); test: HEK/293 TLR8 Cell Assay; type: cell-based; details: HEK cells, R848 agonist 30 uM final concentration, Steady-Glo readout; read-out: TLR8 potency
T2 construct: expressed in transfected cells; host or cells: HEK/293 reporter cells (NF-kB luciferase)
T2 sequence (Q9NR97 27-1041): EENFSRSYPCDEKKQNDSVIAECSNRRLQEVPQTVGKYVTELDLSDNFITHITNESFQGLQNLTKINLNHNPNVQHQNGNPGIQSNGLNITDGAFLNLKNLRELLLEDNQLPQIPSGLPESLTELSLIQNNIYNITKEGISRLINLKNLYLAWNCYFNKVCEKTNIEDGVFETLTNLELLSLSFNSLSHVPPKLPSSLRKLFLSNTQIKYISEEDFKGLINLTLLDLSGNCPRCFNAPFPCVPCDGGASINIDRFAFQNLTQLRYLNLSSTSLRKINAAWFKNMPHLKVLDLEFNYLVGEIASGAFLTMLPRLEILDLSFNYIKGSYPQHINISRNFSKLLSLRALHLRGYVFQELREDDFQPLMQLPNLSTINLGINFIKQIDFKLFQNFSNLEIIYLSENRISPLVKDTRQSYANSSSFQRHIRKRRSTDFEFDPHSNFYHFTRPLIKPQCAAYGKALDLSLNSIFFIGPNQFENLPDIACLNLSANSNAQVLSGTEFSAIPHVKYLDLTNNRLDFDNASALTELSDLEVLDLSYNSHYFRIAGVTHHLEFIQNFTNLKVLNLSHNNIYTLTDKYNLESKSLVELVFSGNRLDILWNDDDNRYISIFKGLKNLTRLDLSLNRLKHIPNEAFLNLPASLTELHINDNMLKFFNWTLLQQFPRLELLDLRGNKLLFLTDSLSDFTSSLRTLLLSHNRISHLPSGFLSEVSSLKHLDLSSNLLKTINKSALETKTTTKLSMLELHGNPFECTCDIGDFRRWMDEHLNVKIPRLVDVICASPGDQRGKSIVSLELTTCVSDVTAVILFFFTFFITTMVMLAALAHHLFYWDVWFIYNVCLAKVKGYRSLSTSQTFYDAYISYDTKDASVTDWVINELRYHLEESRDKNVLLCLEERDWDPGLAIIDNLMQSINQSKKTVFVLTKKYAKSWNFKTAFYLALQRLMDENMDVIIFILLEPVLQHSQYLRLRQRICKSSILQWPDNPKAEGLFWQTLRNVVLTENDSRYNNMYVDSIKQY
Method: as §1, with “Example 390:” for “Example 389:”, “HEK/293 TLR8” for “HEK/293 TLR7”, “serum, 1%” for “serum, 10%”, “agonist (30” for “agonist (10”

Compound	IC50 (TLR7) [nM]	IC50 (TLR8) [nM]
CCN(C)CCNC(=O)[C@H]1CN(c2ccc(C#N)c3ncncc23)C[C@@H](C)O1 [Example 266, (2R,6R)-4-(8-Cyano-quinazolin-5-yl)-6-methyl-morpholine-2-carboxylic acid [2-(ethyl-methyl-amino)-ethyl]-amide]	75 to 150	> 150
Cc1c(F)cc(N2C[C@H](NC(=O)CC3(O)CCN(C)CC3)C[C@H](C(F)(F)F)C2)c2cccnc12 [Example 68, hydrochloride]	< 75	< 75
C[C@H]1C[C@@H](NC(=O)[C@H](N)CO)CN(c2ccc(C(F)(F)F)c3ncccc23)C1 [Example 167]	< 75	< 75
C[C@@H]1CN(c2cnc(C#N)c3ncccc23)C[C@H](CNCC2(O)COC2)O1 [Example 378, 5-((2S,6R)-2-{[(3-Hydroxy-oxetan-3-ylmethyl)-amino]-methyl}-6-methyl-morpholin-4-yl)-[1,7]naphthyridine-8-carbonitrile]	> 150	> 150
C[C@@H]1CN(c2ccc(C#N)c3nccnc23)C[C@H](C(=O)NCC2(F)CNC2)O1 [Example 293, (2R,6R)-4-(8-Cyano-quinoxalin-5-yl)-6-methyl-morpholine-2-carboxylic acid (3-fluoro-azetidin-3-ylmethyl)-amide]	< 75	< 75
C[C@@H]1CN(c2cnc(C#N)c3ncccc23)C[C@H](C(=O)NCC2(F)CNC2)O1 [Example 301, (2R,6R)-4-(8-Cyano-[1,7]naphthyridin-5-yl)-6-methyl-morpholine-2-carboxylic acid (3-fluoro-azetidin-3-ylmethyl)-amide]	< 75	< 75
CC(C(=O)N[C@@H]1C[C@H](C(F)(F)F)CN(c2ccc(C(F)(F)F)c3ncccc23)C1)N1CCN(C)CC1 (single isomer, unassigned) [Example 94]	75 to 150	< 75
Cc1c(F)cc(N2C[C@@H](C)C[C@@H](NC(=O)[C@@H](N)CC(N)=O)C2)c2cccnc12 [Example 129, (2S)-2-amino-N-[(3R,5S)-1-(7-fluoro-8-methylquinolin-5-yl)-5-methylpiperidin-3-yl]butanediamide]	75 to 150	< 75
C[C@@H]1CN(c2ccc(C#N)c3nccnc23)C[C@H](C(=O)NC[C@H](O)C(F)(F)F)O1 [Example 249, (2R,6R)-4-(8-Cyano-quinoxalin-5-yl)-6-methyl-morpholine-2-carboxylic acid ((S)-3,3,3-trifluoro-2-hydroxy-propyl)-amide]	< 75	< 75
C[C@H]1C[C@@H](NC(=O)[C@@H]2CCCN2)CN(c2ccc(C(F)(F)F)c3ncccc23)C1 [Example 176, (S)-Pyrrolidine-2-carboxylic acid [(3R,5S)-5-methyl-1-(8-trifluoromethyl-quinolin-5-yl)-piperidin-3-yl]-amide]	75 to 150	< 75
C[C@@H]1CN(c2ccc(C#N)c3nccnc23)C[C@H](C(=O)NC[C@@H]2COCCN2)O1 (single isomer, unassigned) [Example 297]	< 75	< 75
C[C@@H]1CN(c2ccc(C#N)c3nccnc23)C[C@H](C(=O)NC[C@H]2COCCN2)O1 (single isomer, unassigned) [Example 296]	< 75	< 75
Cc1ccc(N2C[C@H](CNC(=O)CC3CCN(C)CC3)O[C@H](C)C2)c2cccnc12 [Example 342, N-{[(2S,6R)-6-methyl-4-(8-methylquinolin-5-yl)morpholin-2-yl]methyl}-2-(1-methylpiperidin-4-yl)acetamide]	< 75	< 75
COCC(O)CNC(=O)[C@H]1CN(c2ccc(C#N)c3nccnc23)C[C@@H](C)O1 (stereo partly drawn) [Example 252, (2R,6R)-4-(8-Cyano-quinoxalin-5-yl)-6-methyl-morpholine-2-carboxylic acid (2-hydroxy-3-methoxy-propyl)-amide]	75 to 150	< 75
C[C@@H]1CN(c2ccc(C#N)c3nccnc23)C[C@H](C(=O)NCC2(F)CCNC2)O1 (stereo partly drawn) [Example 292, (2R,6R)-4-(8-Cyano-quinoxalin-5-yl)-6-methyl-morpholine-2-carboxylic acid (3-fluoro-pyrrolidin-3-ylmethyl)-amide]	< 75	< 75
C[C@H]1C[C@@H](NC(=O)C2(N)CCCNC2)CN(c2ccc(C(F)(F)F)c3ncccc23)C1 (stereo partly drawn) [Example 180, 3-Amino-piperidine-3-carboxylic acid [(3R,5S)-5-methyl-1-(8-trifluoromethyl-quinolin-5-yl)-piperidin-3-yl]-amide]	< 75	< 75
C[C@@H](O)[C@H](N)C(=O)N1CCC(CC(=O)N[C@@H]2C[C@H](C(F)(F)F)CN(c3ccc(C#N)c4ncccc34)C2)CC1 [Example 184, 2-[1-((2S,3R)-2-Amino-3-hydroxy-butyryl)-piperidin-4-yl]-N-[(3R,5S)-1-(8-cyano-quinolin-5-yl)-5-trifluoromethyl-piperidin-3-yl]-acetamide]	> 150	75 to 150
CN(C)CCNC(=O)N[C@@H]1C[C@H](C(F)(F)F)CN(c2ccc(C(F)(F)F)c3ncccc23)C1 [Example 144, 3-[2-(dimethylamino)ethyl]-1-[(3R,5S)-5-(trifluoromethyl)-1-[8-(trifluoromethyl)quinolin-5-yl]piperidin-3-yl]urea]	75 to 150	< 75
CC(C)(O)CNC(=O)[C@H]1CN(c2ccc(C#N)c3nccnc23)C[C@@H](C(F)(F)F)O1 (single isomer, unassigned) [Example 284]	< 75	75 to 150
